Assay results as given in patent publication US10889555B2, “Sulfonamide compound or salt thereof” (Taiho Pharmaceutical Co., Ltd., priority 2016, dated 2021).

Tested on: HCC 1806 cells
Experiment: Cell proliferation inhibitory effect on human breast cancer cell line (crystal violet, 72 hours)
Assay type: cell-based
Conditions: Homo sapiens, HCC1806, 72 h, read-out: Cell growth suppression IC50
In short: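 Cells were seeded at 2,000/well in RPMI-1640 with 10% FBS and grown 1 day, then exposed to compound for 72 h at 37° C, 5% CO2. After glutaraldehyde fixation and 0.05% crystal violet staining, extracted dye was read at 540 nm. IC50 (μM) came from growth inhibition relative to untreated and cell-free wells.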

Structure (SMILES)	IC50 [nM]
COc1c(S(=O)(=O)N[C@H](c2n[nH]c(=O)o2)[C@H](C)c2c(F)ccc(C)c2C)ncc(Cl)c1C(C)O (stereo partly drawn) [Example 216, 5-chloro-N-((1S,2R)-2-(6-fluoro-2,3-dimethylphenyl)-1-(5-oxo-4,5-dihydro-1,3,4-oxadiazol-2-yl)propyl)-4-(1-hydroxyethyl)-3-methoxypyridine-2-sulfonamide]	670
Cc1cccc2cccc([C@@H](C)[C@H](NS(=O)(=O)c3ccc(Cl)c4c3OCCC4O)c3n[nH]c(=O)o3)c12 (stereo partly drawn) [Example 232, 5-chloro-4-hydroxy-N-((1S,2R)-2-(8-methylnaphthalene-1-yl)-1-(5-oxo-4,5-dihydro-1,3,4-oxadiazol-2-yl)propyl)chroman-8-sulfonamide]	330
C[C@H](c1c(F)ccc2ccccc12)[C@H](NS(=O)(=O)c1ccc(Cl)c2c1OCCC2O)c1n[nH]c(=O)o1 (stereo partly drawn) [Example 233, 5-chloro-N-((1S,2R)-2-(2-fluoronaphthalene-1-yl)-1-(5-oxo 4,5-dihydro-1,3,4-oxadiazol-2-yl)propyl)-4-hydroxychroman-8-sulfonamide]	280
Cc1ccc(F)c([C@@H](C)[C@H](NS(=O)(=O)c2ccc(F)c3c2OCCC3O)c2n[nH]c(=O)o2)c1C (stereo partly drawn) [Example 241, 5-fluoro-N-((1S,2R)-2-(6-fluoro-2,3-dimethylphenyl)-1-(5-oxo-4,5-dihydro-1,3,4-oxadiazol-2-yl)propyl)-4-hydroxychroman-8-sulfonamide]	490
Cc1ccc(F)c([C@@H](C)[C@H](NS(=O)(=O)c2ncc(Cl)cc2C(N)=O)c2n[nH]c(=O)o2)c1C [Example 245, 5-chloro-2-(N-((1S,2R)-2-(6-fluoro-2,3-dimethylphenyl)-1-(5-oxo-4,5-dihydro-1,3,4-oxadiazol-2-yl)propyl)sulfamoyl)nicotinamide]	150
Cc1c(Cl)ccc(F)c1[C@@H](C)[C@H](NS(=O)(=O)c1ncc(Cl)cc1C(N)=O)c1n[nH]c(=O)o1 [Example 249, 5-chloro-2-(N-((1S,2R)-2-(3-chloro-6-fluoro-2-methylphenyl)-1-(5-oxo-4,5-dihydro-1,3,4-oxadiazol-2-yl)propyl)sulfamoyl)nicotinamide]	140
Cc1ccc(F)c([C@@H](C)[C@H](NS(=O)(=O)c2ncc(Br)cc2C(N)=O)c2n[nH]c(=O)o2)c1C [Example 250, 5-bromo-2-(N-((1S,2R)-2-(6-fluoro-2,3-dimethylphenyl)-1-(5-oxo-4,5-dihydro-1,3,4-oxadiazol-2-yl)propyl)sulfamoyl)nicotinamide]	120
CNC(=O)c1nc(S(=O)(=O)N[C@H](c2n[nH]c(=O)o2)[C@H](C)c2c(F)ccc(C)c2C)ccc1Cl [Example 252, 3-chloro-6-(N-((1S,2R)-2-(6-fluoro-2,3-dimethylphenyl)-1-(5-oxo-4,5-dihydro-1,3,4-oxadiazol-2-yl)propyl)sulfamoyl)-N-methylpicolinamide]	740
Cc1ccc(F)c([C@@H](C)[C@H](NS(=O)(=O)c2ccc(Cl)c(C(=O)N(C)C)n2)c2n[nH]c(=O)o2)c1C [Example 253, 3-chloro-6-(N-((1S,2R)-2-(6-fluoro-2,3-dimethylphenyl)-1-(5-oxo-4,5-dihydro-1,3,4-oxadiazol-2-yl)propyl)sulfamoyl)-N,N-dimethylpicolinamide]	230
Cc1c(Cl)ccc(F)c1[C@@H](C)[C@H](NS(=O)(=O)c1ncc(Br)cc1C(N)=O)c1n[nH]c(=O)o1 [Example 254, 5-bromo-2-(N-((1S,2R)-2-(3-chloro-6-fluoro-2-methylphenyl)-1-(5-oxo-4,5-dihydro-1,3,4-oxadiazol-2-yl)propyl)sulfamoyl)nicotinamide]	250
Cc1ccc(F)c([C@@H](C)[C@H](NS(=O)(=O)c2cc(F)c(Cl)cc2C(N)=O)c2n[nH]c(=O)o2)c1C [Example 255, 5-chloro-4-fluoro-2-(N-((1S,2R)-2-(6-fluoro-2,3-dimethylphenyl)-1-(5-oxo-4,5-dihydro-1,3,4-oxadiazol-2-yl)propyl)sulfamoyl)benzamide]	480
Cc1cc(S(=O)(=O)N[C@H](c2n[nH]c(=O)o2)[C@H](C)c2c(F)ccc(C)c2C)c(C(N)=O)cc1Cl [Example 257, 5-chloro-2-(N-((1S,2R)-2-(6-fluoro-2,3-dimethylphenyl)-1-(5-oxo-4,5-dihydro-1,3,4-oxadiazol-2-yl)propyl)sulfamoyl)-4-methylbenzamide]	200
Cc1ccc(F)c([C@@H](C)[C@H](NS(=O)(=O)c2c(F)cc(Cl)cc2C(N)=O)c2n[nH]c(=O)o2)c1C [Example 258, 5-chloro-3-fluoro-2-(N-((1S,2R)-2-(6-fluoro-2,3-dimethylphenyl)-1-(5-oxo-4,5-dihydro-1,3,4-oxadiazol-2-yl)propyl)sulfamoyl)benzamide]	580
COc1cc(S(=O)(=O)N[C@H](c2n[nH]c(=O)o2)[C@H](C)c2c(F)ccc(C)c2C)c(C(N)=O)cc1Cl [Example 259, 5-chloro-2-(N-((1S,2R)-2-(6-fluoro-2,3-dimethylphenyl)-1-(5-oxo-4,5-dihydro-1,3,4-oxadiazol-2-yl)propyl)sulfamoyl)-4-methoxybenzamide]	350
Cc1ccc(F)c([C@@H](C)[C@H](NS(=O)(=O)c2cc3c(cc2C(N)=O)OCCO3)c2n[nH]c(=O)o2)c1C [Example 261, 7-(N-((1S,2R)-2-(6-fluoro-2,3-dimethylphenyl)-1-(5-oxo-4,5-dihydro-1,3,4-oxadiazol-2-yl)propyl)sulfamoyl)-2,3-dihydrobenzo[b][1,4]dioxin-6-carboxamide]	720
Cc1ccc(F)c([C@@H](C)[C@H](NS(=O)(=O)c2cc([N+](=O)[O-])c(Cl)cc2C(N)=O)c2n[nH]c(=O)o2)c1C [Example 262, 5-chloro-2-(N-((1S,2R)-2-(6-fluoro-2,3-dimethylphenyl)-1-(5-oxo-4,5-dihydro-1,3,4-oxadiazol-2-yl)propyl)sulfamoyl)-4-nitrobenzamide]	170
Cc1c(Br)ccc(F)c1[C@@H](C)[C@H](NS(=O)(=O)c1ncc(Cl)cc1C(N)=O)c1n[nH]c(=O)o1 [Example 264, 2-(N-((1S,2R)-2-(3-bromo-6-fluoro-2-methylphenyl)-1-(5-oxo-4,5-dihydro-1,3,4-oxadiazol-2-yl)propyl)sulfamoyl)-5-chloronicotinamide]	760
Cc1ccc(F)c([C@@H](C)[C@H](NS(=O)(=O)c2ccc(Cl)c3c2OCC(=O)N3CCO)c2n[nH]c(=O)o2)c1C [Example 273, 5-chloro-N-((1S,2R)-2-(6-fluoro-2,3-dimethylphenyl)-1-(5-oxo-4,5-dihydro-1,3,4-oxadiazol-2-yl)propyl)-4-(2-hydroxyethyl)-3-oxo-3,4-dihydro-2H-benzo[b][1,4]oxazine-8-sulfonamide]	810
Cc1ccc(F)c([C@@H](C)[C@H](NS(=O)(=O)c2ccc(Cl)c3c2OCCN3)c2n[nH]c(=O)o2)c1C [Example 275, 5-chloro-N-((1S,2R)-2-(6-fluoro-2,3-dimethylphenyl)-1-(5-oxo-4,5-dihydro-1,3,4-oxadiazol-2-yl)propyl)-3,4-dihydro-2H-benzo[b][1,4]oxazine-8-sulfonamide]	370
Cc1ccc(F)c([C@@H](C)[C@H](NS(=O)(=O)c2ccc(Cl)c3c2OCCC3N)c2n[nH]c(=O)o2)c1C (stereo partly drawn) [Example 278, 4-amino-5-chloro-N-((1S,2R)-2-(6-fluoro-2,3-dimethylphenyl)-1-(5-oxo-4,5-dihydro-1,3,4-oxadiazol-2-yl)propyl)chroman-8-sulfonamide]	590
Cc1ccc(F)c([C@@H](C)[C@H](NS(=O)(=O)c2ccc(Cl)c3c2OCCN3C)c2n[nH]c(=O)o2)c1C [Example 288, 5-chloro-N-((1S,2R)-2-(6-fluoro-2,3-dimethylphenyl)-1-(5-oxo-4,5-dihydro-1,3,4-oxadiazol-2-yl)propyl)-4-methyl-3,4-dihydro-2H-benzo[b][1,4]oxazine-8-sulfonamide]	150
Cc1c(Cl)ccc(F)c1[C@@H](C)[C@H](NS(=O)(=O)c1ccc(Cl)c2c1OCCN2C)c1n[nH]c(=O)o1 [Example 289, 5-chloro-N-((1S,2R)-2-(3-chloro-6-fluoro-2-methylphenyl)-1-(5-oxo-4,5-dihydro-1,3,4-oxadiazol-2-yl)propyl)-4-methyl-3,4-dihydro-2H-benzo[b][1,4]oxazine-8-sulfonamide]	600
COc1c(S(=O)(=O)N[C@H](c2n[nH]c(=O)o2)[C@H](C)c2c(F)ccc(C)c2C)ccc(Cl)c1C(C)=O [Example 294, 3-acetyl-4-chloro-N-((1S,2R)-2-(6-fluoro-2,3-dimethylphenyl)-1-(5-oxo-4,5-dihydro-1,3,4-oxadiazol-2-yl)propyl)-2-methoxybenzenesulfonamide]	390
COc1cc(Cl)ccc1S(=O)(=O)N[C@H](c1n[nH]c(=O)o1)[C@H](C)c1c(F)ccc(-c2cn[nH]c2)c1C [Example 303, 4-chloro-N-((1S,2R)-2-(6-fluoro-2-methyl-3-(1H-pyrazol-4-yl)phenyl)-1-(5-oxo-4,5-dihydro-1,3,4-oxadiazol-2-yl)propyl)-2-methoxybenzenesulfonamide]	990
COc1cc(Cl)ccc1S(=O)(=O)N[C@H](c1n[nH]c(=O)o1)[C@H](C)c1c(F)ccc(-c2cnn(C(F)F)c2)c1C [Example 304, 4-chloro-N-((1S,2R)-2-(3-(1-(difluoromethyl)-1H-pyrazol-4-yl)-6-fluoro-2-methylphenyl)-1-(5-oxo-4,5-dihydro-1,3,4-oxadiazol-2-yl)propyl)-2-methoxybenzenesulfonamide]	940
COc1cc(Cl)ccc1S(=O)(=O)N[C@H](c1n[nH]c(=O)o1)[C@H](C)c1c(F)ccc(-c2c[nH]nc2C)c1C [Example 308, 4-chloro-N-((1S,2R)-2-(6-fluoro-2-methyl-3-(3-methyl-1H-pyrazol-4-yl)phenyl)-1-(5-oxo-4,5-dihydro-1,3,4-oxadiazol-2-yl)propyl)-2-methoxybenzenesulfonamide]	870
